Reference: US10399940B2, “Substituted pyrrolidines and methods of use” (AbbVie S.à.r.l., priority 2016, dated 2019)
Where two headings read alike, the source gives them in different places.

Target: T1, F508delCFTR (Homo sapiens, UniProt P13569, DEL508-508)
T1 construct: expressed in transfected cells; host or cells: CFBE41o- (human lung derived epithelial cell line), doxycycline-inducible expression
Test: Cell Surface Expression-Horse Radish Peroxidase (CSE-HRP) assay
Assay type: cell-based
Conditions: CFBE41o-F508delCFTR-HRP cells; for Maximum % activity (with co-corrector): with co-corrector (2 μM); for Maximum % activity (with co-corrector) / Maximum % activity (without co-corrector): normalized to on-plate positive control, highest concentration 20 μM
Experimental: Cell Surface Expression-Horse Radish Peroxidase (CSE-HRP) Assay
A cellular assay for measuring the F508delCFTR cell surface expression after correction with test compounds either without or with a co-corrector (2 μM of 3-[(2R,4R)-4-({[1-(2,2-difluoro-1,3-benzodioxol-5-yl)cyclopropyl]carbonyl}amino)-7-methoxy-3,4-dihydro-2H-chromen-2-yl]benzoic acid), was developed in human lung derived epithelial cell line (CFBE41o-) (Veit G et al, (2012) Mol Biol Cell. 23(21): 4188-4202). The development was achieved by expressing the F508delCFTR mutation along with a horseradish peroxidase (HRP) in the fourth exofacial loop, and then measuring the HRP activity using luminescence readout from these cells, CFBE41o-F508delCFTR-HRP, that were incubated overnight with the test corrector compounds, either without or with the co-corrector. For this primary assay, the CFBE41o-F508delCFTR-HRP cells were plated in 384-well plates (Greiner Bio-one; Cat 781080) at 4,000 cells/well along with 0.5 μg/mL doxycycline to induce the F508delCFTR-HRP expression and further incubated at 37° C., 5% CO2 for 72 hours. The test compounds were then added either without or with a co-corrector at the required concentrations and further incubated for 18-24 hours at 33° C. The highest concentration tested was 20 μM with an 8-point concentration response curve using a 3-fold dilution in both the test compound without or with the co-corrector. Three replicate plates were run to determine one EC50. All plates contained negative controls (dimethyl sulfoxide, DMSO) and positive control (2 μM of 3-[(2R,4R)-4-({[1-(2,2-difluoro-1,3-benzodioxol-5-yl)cyclopropyl]carbonyl}amino)-7-methoxy-3,4-dihydro-2H-chromen-2-yl]benzoic acid) as well as on-plate concentration response of the positive control. Post incubation, the plates were washed 5× times with Dulbecco's phosphate buffered saline (DPBS), followed by the addition of the HRP substrate, luminol (50 μL), and measuring the HRP activity using luminescence readout on EnVision® Multilabel Plate Reader (Perkin Elmer; product number 2104-0010). The raw counts from the experiment were analyzed using Accelrys® Assay Explorer v3.3.
Z′ greater than 0.5 was used as passing quality control criteria for the plates.
The Z′ is defined as: 1−[3*SDPositive Control+3*SDNegative Control/Absolute(MeanPositive Control−MeanNegative Control)] wherein “SD” is standard deviation.
The % activity measured at each of the 8 test concentrations of the test compound added either without or with a co-corrector (2 μM of 3-[(2R,4R)-4-({[1-(2,2-difluoro-1,3-benzodioxol-5-yl)cyclopropyl]carbonyl}amino)-7-methoxy-3,4-dihydro-2H-chromen-2-yl]benzoic acid) was normalized to the on-plate positive control using the following formulae: % activity(Test compound without co-corrector)=[(test compound without co-corrector response−DMSO response)/(positive control response−DMSO response)]*100 % activity(Test compound with co-corrector)=[(test compound with co-corrector response−DMSO response)/(positive control response−DMSO response)]*100
The maximum % activity achieved for the test compound either without or with a co-corrector at any tested concentration is presented in Table 1 along with the respective EC50's calculated using the following general sigmoidal curve with variable Hill slope equation (described as Model 42 in the Accelrys® Assay Explorer v3.3 software): y=(a−d)/(1+(x/c)^b)+d
General sigmoidal curve with concentration, response, top, bottom, EC50 and Hill slope. This model describes a sigmoidal curve with an adjustable baseline, a. The equation can be used to fit curves where response is either increasing or decreasing with respect to the independent variable, “x”. • “x” is a concentration of drug under test. • “y” is the response. • “a” is the maximum response, and “d” is the minimum response • “c” is the inflection point (EC50) for the curve. That is, “y” is halfway between the lower and upper asymptotes when x=c. “b” is the slope-factor or Hill coefficient. […]

[1] = test compound without co-corrector, 18-24 hours at 33° C., read-out: EC50 (without co-corrector)
[2] = with co-corrector (2 μM of 3-[(2R,4R)-4-({[1-(2,2-difluoro-1,3-benzodioxol-5-yl)cyclopropyl]carbonyl}amino)-7-methoxy-3,4-dihydro-2H-chromen-2-yl]benzoic acid), read-out: EC50 (with co-corrector)

T1 sequence (P13569 with tags, fused parts or gaps DEL508-508): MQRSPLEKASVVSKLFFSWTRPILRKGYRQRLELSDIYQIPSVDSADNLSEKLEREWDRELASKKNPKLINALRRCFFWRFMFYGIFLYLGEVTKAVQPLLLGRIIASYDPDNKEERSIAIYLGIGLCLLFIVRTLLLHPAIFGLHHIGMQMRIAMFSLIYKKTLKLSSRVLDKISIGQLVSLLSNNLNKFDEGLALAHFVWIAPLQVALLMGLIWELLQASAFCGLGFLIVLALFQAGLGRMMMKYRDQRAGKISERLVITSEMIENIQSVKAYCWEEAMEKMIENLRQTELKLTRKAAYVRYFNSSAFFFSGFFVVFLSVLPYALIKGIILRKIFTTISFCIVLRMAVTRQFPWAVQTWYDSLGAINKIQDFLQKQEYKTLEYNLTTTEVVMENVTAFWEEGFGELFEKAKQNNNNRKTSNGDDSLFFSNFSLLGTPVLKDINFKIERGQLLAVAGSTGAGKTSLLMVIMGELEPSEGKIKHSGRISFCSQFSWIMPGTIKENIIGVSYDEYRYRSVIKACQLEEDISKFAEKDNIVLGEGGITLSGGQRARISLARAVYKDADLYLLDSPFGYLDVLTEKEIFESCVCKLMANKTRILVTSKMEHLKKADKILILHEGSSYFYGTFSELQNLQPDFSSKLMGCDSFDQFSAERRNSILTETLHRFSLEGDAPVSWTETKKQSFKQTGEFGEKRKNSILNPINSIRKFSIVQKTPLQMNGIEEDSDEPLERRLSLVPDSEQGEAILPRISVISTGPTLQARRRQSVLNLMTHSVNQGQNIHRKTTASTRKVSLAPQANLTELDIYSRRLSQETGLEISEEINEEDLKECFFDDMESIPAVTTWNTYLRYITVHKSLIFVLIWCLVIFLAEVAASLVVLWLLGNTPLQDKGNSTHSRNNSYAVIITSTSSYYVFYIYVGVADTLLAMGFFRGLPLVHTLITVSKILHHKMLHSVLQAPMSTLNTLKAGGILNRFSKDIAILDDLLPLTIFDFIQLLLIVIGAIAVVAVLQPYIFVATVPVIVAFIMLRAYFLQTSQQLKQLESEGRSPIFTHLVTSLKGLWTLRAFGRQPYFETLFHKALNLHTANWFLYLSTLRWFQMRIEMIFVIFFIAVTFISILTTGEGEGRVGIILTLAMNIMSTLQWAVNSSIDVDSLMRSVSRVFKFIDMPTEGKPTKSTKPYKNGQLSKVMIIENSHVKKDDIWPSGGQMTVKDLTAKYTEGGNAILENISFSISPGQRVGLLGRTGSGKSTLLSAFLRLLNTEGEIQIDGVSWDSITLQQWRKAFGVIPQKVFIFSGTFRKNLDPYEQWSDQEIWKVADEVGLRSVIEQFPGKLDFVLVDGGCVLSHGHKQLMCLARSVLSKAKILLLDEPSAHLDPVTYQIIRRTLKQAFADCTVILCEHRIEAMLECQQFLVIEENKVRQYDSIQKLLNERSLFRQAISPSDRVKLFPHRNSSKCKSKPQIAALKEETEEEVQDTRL

`COc1ccc(C(F)(F)F)cc1COC1[C@@H](c2cccnc2N(C)C)N(C(=O)C2CCCCC2)[C@@H](C(=O)O)[C@@H]1C(C)(C)C` (mixture of isomers) [Example 15, rac-(2R,3S,5R)-3-tert-butyl-1-(cyclohexanecarbonyl)-5-[2-(dimethylamino)pyridin-3-yl]-4-{[2-methoxy-5-(trifluoromethyl)phenyl]methoxy}pyrrolidine-2-carboxylic acid] was tested, and the EC50 [1] was 1000 to 10000 nM, the EC50 [2] was 1000 to 10000 nM and the “Maximum % activity (with co-corrector)” value was “+++ (≥350)”. For the same molecule, the “Maximum % activity (without co-corrector)” value was “++ (≥100 and <200)”.

`COc1ccc(C(F)(F)F)cc1COC1[C@@H](c2ccccc2)N(C(=O)C2CCCCC2)[C@@H](C(=O)NS(C)(=O)=O)[C@@H]1C(C)(C)C` (mixture of isomers) [Example 16, rac-(2R,3S,5R)-3-tert-butyl-1-(cyclohexanecarbonyl)-N-(methanesulfonyl)-4-{[2-methoxy-5-(trifluoromethyl)phenyl]methoxy}-5-phenylpyrrolidine-2-carboxamide] was tested, and the EC50 [1] was 1000 to 10000 nM, the EC50 [2] was 1000 to 10000 nM and the “Maximum % activity (with co-corrector)” value was “++ (≥150 and <350)”. For the same molecule, the “Maximum % activity (without co-corrector)” value was “+ (<100)”.

For `COc1ccc(Cl)cc1COC1[C@@H](c2ccccc2)N(C(=O)OC(C)C)[C@@H](C(=O)O)[C@@H]1C(C)(C)C` (mixture of isomers) [Example 17, rac-(2R,3S,5R)-3-tert-butyl-4-[(5-chloro-2-methoxyphenyl)methoxy]-5-phenyl-1-{[(propan-2-yl)oxy]carbonyl}pyrrolidine-2-carboxylic acid], the EC50 [1] was 1000 to 10000 nM, the EC50 [2] was 1000 to 10000 nM and the “Maximum % activity (with co-corrector)” value was “+++ (≥350)”. For the same molecule, the “Maximum % activity (without co-corrector)” value was “++ (≥100 and <200)”.

`COc1ncc(C(F)(F)F)cc1CO[C@@H]1[C@@H](C(C)(C)C)[C@H](C(=O)O)N(C(=O)C2CCCCC2)[C@@H]1c1ccccc1` (racemic) [Example 20, rac-(2R,3S,4R,5R)-3-tert-butyl-1-(cyclohexanecarbonyl)-4-{[2-methoxy-5-(trifluoromethyl)pyridin-3-yl]methoxy}-5-phenylpyrrolidine-2-carboxylic acid] was tested, and the EC50 [1] was less than 1000 nM, the EC50 [2] was less than 1000 nM and the “Maximum % activity (with co-corrector)” value was “+++ (≥350)”. The “Maximum % activity (without co-corrector)” value was “++ (≥100 and <200)”.

`COc1cc(C(F)(F)F)ccc1CO[C@@H]1[C@@H](C(C)(C)C)[C@H](C(=O)O)N(C(=O)OC2CCC2)[C@@H]1c1ccccc1` (racemic) [Example 34, rac-(2R,3S,4R,5R)-3-tert-butyl-1-[(cyclobutyloxy)carbonyl]-4-{[2-methoxy-4-(trifluoromethyl)phenyl]methoxy}-5-phenylpyrrolidine-2-carboxylic acid] was tested, and the EC50 [1] was 1000 to 10000 nM, the EC50 [2] was 1000 to 10000 nM and the “Maximum % activity (with co-corrector)” value was “+++ (≥350)”. For the same molecule, the “Maximum % activity (without co-corrector)” value was “+ (<100)”.

For `COc1ccc(Cl)cc1CO[C@@H]1[C@@H](C(C)(C)C)[C@H](C(=O)O)N(C(=O)OC2CCC2)[C@@H]1c1ccccc1` (racemic) [Example 35, rac-(2R,3S,4R,5R)-3-tert-butyl-4-[(5-chloro-2-methoxyphenyl)methoxy]-1-[(cyclobutyloxy)carbonyl]-5-phenylpyrrolidine-2-carboxylic acid], the EC50 [1] was 1000 to 10000 nM, the EC50 [2] was 1000 to 10000 nM and the “Maximum % activity (with co-corrector)” value was “+++ (≥350)”. For the same molecule, the “Maximum % activity (without co-corrector)” value was “++ (≥100 and <200)”.

For `COc1ccc(C(F)(F)F)cc1CO[C@@H]1[C@@H](C(C)(C)C)[C@H](C(=O)O)N(C(=O)N(C(C)C)C(C)C)[C@@H]1c1ccccc1` (single isomer, unassigned) [Example 8, (2R*,3S*,4R*,5R*)-3-tert-butyl-1-[di(propan-2-yl)carbamoyl]-4-{[2-methoxy-5-(trifluoromethyl)phenyl]methoxy}-5-phenylpyrrolidine-2-carboxylic acid], the EC50 [1] was greater than 10000 nM, the EC50 [2] was greater than 10000 nM and the “Maximum % activity (with co-corrector)” value was “+ (<150)”. The “Maximum % activity (without co-corrector)” value was “+ (<100)”.

For `COc1ccc(C(F)(F)F)cc1CO[C@H]1[C@H](C(C)(C)C)[C@@H](C(=O)O)N(C(=O)N(C(C)C)C(C)C)[C@H]1c1ccccc1` (single isomer, unassigned) [Example 9, (2S*,3R*,4S*,5S*)-3-tert-butyl-1-[di(propan-2-yl)carbamoyl]-4-{[2-methoxy-5-(trifluoromethyl)phenyl]methoxy}-5-phenylpyrrolidine-2-carboxylic acid], the EC50 [1] was greater than 10000 nM, the EC50 [2] was greater than 10000 nM and the “Maximum % activity (with co-corrector)” value was “+ (<150)”. For the same molecule, the “Maximum % activity (without co-corrector)” value was “+ (<100)”.

With `COc1ncc(C(F)(F)F)cc1CO[C@H]1[C@H](C(C)(C)C)[C@@H](C(=O)O)N(C(=O)[C@H]2CCCCO2)[C@H]1c1cccc(C(C)(C)C)c1` (single isomer, unassigned) [Example 157] the EC50 [1] was less than 1000 nM, the EC50 [2] was less than 1000 nM and the “Maximum % activity (with co-corrector)” value was “++ (≥150 and <350)”. The “Maximum % activity (without co-corrector)” value was “+ (<100)”.

In the case of `COc1ncc(C(F)(F)F)cc1CO[C@H]1[C@H](C(C)(C)C)[C@@H](C(=O)O)N(C(=O)[C@@H]2CCCC[C@H]2C(F)(F)F)[C@H]1c1cccnc1OC(C)C` (single isomer, unassigned) [Example 282], the EC50 [1] is reported as less than 1000 nM, the EC50 [2] is reported as less than 1000 nM and the “Maximum % activity (with co-corrector)” value is reported as “+++ (≥350)”. The “Maximum % activity (without co-corrector)” value was “+ (<100)”.

In the case of `COc1ncc(C(F)(F)F)cc1CO[C@H]1[C@H](C(C)(C)C)[C@@H](C(=O)O)N(C(=O)[C@H]2CCCC[C@@H]2C(F)(F)F)[C@H]1c1cccnc1OC(C)C` (single isomer, unassigned) [Example 283], the EC50 [1] is reported as less than 1000 nM, the EC50 [2] is reported as 1000 to 10000 nM and the “Maximum % activity (with co-corrector)” value is reported as “+++ (≥350)”. The “Maximum % activity (without co-corrector)” value was “+ (<100)”.

`COc1ccc(C(F)(F)F)cc1CO[C@@H]1[C@@H](C(C)(C)C)[C@H](C(=O)O)N(C(=O)C2CCCCC2)[C@@H]1c1ccccc1` [Example 18, (2R,3S,4R,5R)-3-tert-butyl-1-(cyclohexanecarbonyl)-4-{[2-methoxy-5-(trifluoromethyl)phenyl]methoxy}-5-phenylpyrrolidine-2-carboxylic acid] was tested, and the EC50 [1] was greater than 10000 nM, the EC50 [2] was 1000 to 10000 nM and the “Maximum % activity (with co-corrector)” value was “++ (≥150 and <350)”. The “Maximum % activity (without co-corrector)” value was “+ (<100)”.

For `COc1ccc(C(F)(F)F)cc1CO[C@H]1[C@H](C(C)(C)C)[C@@H](C(=O)O)N(C(=O)C2CCCCC2)[C@H]1c1ccccc1` [Example 19, (2S,3R,4S,5S)-3-tert-butyl-1-(cyclohexanecarbonyl)-4-{[2-methoxy-5-(trifluoromethyl)phenyl]methoxy}-5-phenylpyrrolidine-2-carboxylic acid], the EC50 [1] was less than 1000 nM, the EC50 [2] was less than 1000 nM and the “Maximum % activity (with co-corrector)” value was “+++ (≥350)”. The “Maximum % activity (without co-corrector)” value was “+++ (≥200)”.

In the case of `COCCS(=O)(=O)NC(=O)[C@@H]1[C@@H](C(C)(C)C)[C@H](OCc2cc(C(F)(F)F)ccc2OC)[C@H](c2ccccc2)N1C(=O)C1CCCCC1` [Example 21, (2S,3R,4S,5S)-3-tert-butyl-1-(cyclohexanecarbonyl)-N-(2-methoxyethanesulfonyl)-4-{[2-methoxy-5-(trifluoromethyl)phenyl]methoxy}-5-phenylpyrrolidine-2-carboxamide], the EC50 [1] is reported as greater than 10000 nM, the EC50 [2] is reported as 1000 to 10000 nM and the “Maximum % activity (with co-corrector)” value is reported as “++ (≥150 and <350)”. The “Maximum % activity (without co-corrector)” value was “+ (<100)”.
